Structures are written as SMILES. Read-outs that look alike come from different tables or passages of the source. Bounds are passed on as bounds.

Common to all, as to type: biochemical
Experiment [1] deals with CDK2/CCNE1 (Homo sapiens, UniProt P24941). Description: CDK2 homogeneous time-resolved fluorescence (HTRF) kinase assay. Conditions: CDK2/CCNE. A digest of the protocol: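 TR-FRET read-out (665 nm, or 665/615 ratio) of Eu-antibody detection of phospho-4E-BP1 (Thr37/46) ULight peptide. Enzyme 3 nM, ATP 1 mM, peptide 50 nM, 1% DMSO; 60 min reaction at 23 °C after 20 min compound preincubation. IC50 from 11-point half-log titrations, top typically 10 μM.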
In general terms: TR-FRET usually uses a lanthanide donor and a delayed reading to cut background.

Experiment [2] deals with CDK1/CCNB1 (Homo sapiens, UniProt P06493). Description: CDK1 homogeneous time-resolved fluorescence (HTRF) kinase assay. To be noted: CDK1/CCNB. A digest of the protocol: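 Compounds, titrated 11 points in half-log steps typically from 10 μM, were incubated with enzyme for 20 min before ATP (1 mM) and ULight-labelled eIF4E-binding protein 1 peptide (50 nM) started a 60-min reaction at 23 °C. Phosphopeptide was detected by europium-antibody TR-FRET and IC50 values were derived.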
Sequence of CDK1/CCNB1 (P06493 whole entry): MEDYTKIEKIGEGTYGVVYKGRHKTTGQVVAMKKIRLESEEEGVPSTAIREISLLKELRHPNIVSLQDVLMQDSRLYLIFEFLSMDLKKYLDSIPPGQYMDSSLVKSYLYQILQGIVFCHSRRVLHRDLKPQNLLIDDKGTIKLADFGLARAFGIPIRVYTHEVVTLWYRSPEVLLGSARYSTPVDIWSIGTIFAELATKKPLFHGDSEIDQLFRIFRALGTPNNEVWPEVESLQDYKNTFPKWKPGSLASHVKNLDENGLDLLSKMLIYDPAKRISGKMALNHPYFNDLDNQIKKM
Sequence of CDK1/CCNB1 (P14635 whole entry partner): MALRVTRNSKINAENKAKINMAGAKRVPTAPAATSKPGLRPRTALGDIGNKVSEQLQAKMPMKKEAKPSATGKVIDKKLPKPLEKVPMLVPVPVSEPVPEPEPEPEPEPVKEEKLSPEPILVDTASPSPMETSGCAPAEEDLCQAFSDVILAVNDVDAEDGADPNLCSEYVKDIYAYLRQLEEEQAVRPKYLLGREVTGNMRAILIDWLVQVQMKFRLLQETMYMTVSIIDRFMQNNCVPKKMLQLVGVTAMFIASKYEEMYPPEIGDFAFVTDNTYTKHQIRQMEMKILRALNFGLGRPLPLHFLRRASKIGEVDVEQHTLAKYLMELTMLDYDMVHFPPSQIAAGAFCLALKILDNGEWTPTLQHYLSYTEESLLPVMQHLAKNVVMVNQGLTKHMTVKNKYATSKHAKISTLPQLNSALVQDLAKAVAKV

For experiment [3], the target named is CDK4/CCND3 (Homo sapiens, UniProt P11802). Description: CDK4 homogeneous time-resolved fluorescence (HTRF) kinase assay. To be noted: CDK4/CCND. A digest of the protocol:
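HTRF kinase assay, CDK4/CCND3 1.5 nM, ATP 1 mM, ULight-4E-BP1 peptide 50 nM, 23 °C, 60 min reaction after 20 min preincubation. Eu-anti-pThr37/46 antibody detection. 11-pt half-log curves from 10 μM → IC50.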

The target in experiment [4] is CDK6/CCND1 (Homo sapiens, UniProt Q00534). Briefly: CDK6 homogeneous time-resolved fluorescence (HTRF) kinase assay. Conditions: CDK6/CCND, 1 mM ATP. A digest of the protocol:
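Recombinant CDK6/CCND1 (1 nM final) was preincubated with compound for 20 min at 23 °C in HEPES buffer with MgCl2, EGTA, DTT and Tween 20. Kinase reaction then ran 60 min at 23 °C with 1 mM ATP and 50 nM ULight-4E-BP1 (Thr37/46) peptide, and was stopped with EDTA.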

Where [5] appears, read: 25-250 nM, read-out: CDK2/CCNE IC50, 25-250 nM.
Setting [6] is: >250 nM, read-out: CDK1/CCNB IC50 >250 nM.
Where [7] appears, read: >250 nM, read-out: CDK4/CCND IC50, >250 nM.
[8] abbreviates: >250 nM, read-out: CDK6/CCND IC50, >250 nM.
The mark [9] stands for this setting: >250 nM, read-out: CDK2/CCNE IC50, >250 nM.
Setting [10] is: <25 nM, read-out: CDK2/CCNE IC50, <25 nM.
Where [11] appears, read: 25-250 nM, read-out: CDK4/CCND IC50, 25-250 nM.
[12] abbreviates: 25-250 nM, read-out: CDK6/CCND IC50, 25-250 nM.

Sequence of CDK4/CCND3 (P11802 whole entry): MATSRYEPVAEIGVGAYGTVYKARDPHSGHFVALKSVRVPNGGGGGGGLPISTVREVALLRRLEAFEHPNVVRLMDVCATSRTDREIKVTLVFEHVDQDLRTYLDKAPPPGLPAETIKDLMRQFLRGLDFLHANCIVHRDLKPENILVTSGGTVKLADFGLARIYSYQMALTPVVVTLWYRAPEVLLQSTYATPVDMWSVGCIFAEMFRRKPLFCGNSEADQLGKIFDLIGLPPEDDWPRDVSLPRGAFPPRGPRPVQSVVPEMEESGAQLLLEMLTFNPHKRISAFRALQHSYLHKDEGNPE
Sequence of CDK4/CCND3 (P30281 whole entry partner): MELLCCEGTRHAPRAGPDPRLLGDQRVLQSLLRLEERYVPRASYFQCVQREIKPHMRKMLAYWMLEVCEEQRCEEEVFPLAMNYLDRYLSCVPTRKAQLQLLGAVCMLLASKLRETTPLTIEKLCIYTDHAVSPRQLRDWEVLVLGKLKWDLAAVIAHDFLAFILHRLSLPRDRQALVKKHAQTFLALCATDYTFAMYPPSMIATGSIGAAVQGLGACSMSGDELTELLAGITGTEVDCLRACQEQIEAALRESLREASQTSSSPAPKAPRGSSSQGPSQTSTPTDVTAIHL
Sequence of CDK6/CCND1 (Q00534 whole entry): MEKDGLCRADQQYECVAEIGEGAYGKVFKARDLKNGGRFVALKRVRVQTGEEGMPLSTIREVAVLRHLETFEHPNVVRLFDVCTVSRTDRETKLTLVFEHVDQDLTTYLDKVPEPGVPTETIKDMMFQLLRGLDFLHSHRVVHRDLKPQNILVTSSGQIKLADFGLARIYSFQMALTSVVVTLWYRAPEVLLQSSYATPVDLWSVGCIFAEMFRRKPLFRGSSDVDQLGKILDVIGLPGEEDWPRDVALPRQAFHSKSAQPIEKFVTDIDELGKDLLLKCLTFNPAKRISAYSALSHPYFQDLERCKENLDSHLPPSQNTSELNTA
Sequence of CDK6/CCND1 (P24385 whole entry partner): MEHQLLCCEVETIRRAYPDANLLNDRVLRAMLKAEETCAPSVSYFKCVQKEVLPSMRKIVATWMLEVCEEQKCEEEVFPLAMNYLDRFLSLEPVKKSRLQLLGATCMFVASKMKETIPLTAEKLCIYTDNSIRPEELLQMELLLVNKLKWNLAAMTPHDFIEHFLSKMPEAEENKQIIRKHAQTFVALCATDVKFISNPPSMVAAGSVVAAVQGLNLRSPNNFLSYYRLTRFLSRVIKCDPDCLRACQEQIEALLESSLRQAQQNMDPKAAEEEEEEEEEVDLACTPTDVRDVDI

`Cn1cc2ccc(C#Cc3nccc4cnc(Nc5ccc(S(C)(=O)=O)cc5)cc34)cc2n1` [Ex 859, 5-((2-methyl-2H-indazol-6-yl)ethynyl)-N-(4-(methylsulfonyl)phenyl)-2,6-naphthyridin-3-amine]: the IC50 was 25 to 250 nM in experiment [1] (setting [5]), more than 250 nM in experiment [2] (setting [6]), more than 250 nM in experiment [3] (setting [7]) and more than 250 nM in experiment [4] (setting [8]).
As for `CS(=O)(=O)c1ccc(Nc2cc3c(C#Cc4cc(F)c5cn[nH]c5c4)nccc3cn2)cc1` [Ex 860, 5-((4-fluoro-1H-indazol-6-yl)ethynyl)-N-(4-(methylsulfonyl)phenyl)-2,6-naphthyridin-3-amine], the IC50 in experiment [1] (setting [9]), in experiment [2] (setting [6]), in experiment [3] (setting [7]) and in experiment [4] (setting [8]) was more than 250 nM each time.
Consider `CS(=O)(=O)c1ccc(Nc2cc3c(C#Cc4ccc5c(O)ncnc5c4)nccc3cn2)cc1` [Ex 861, 7-((7-((4-(methylsulfonyl)phenyl)amino)-2,6-naphthyridin-1-yl)ethynyl)quinazolin-4-ol], for which the IC50 in experiment [1] (setting [5]) is 25 to 250 nM; in experiment [2] (setting [6]) it was more than 250 nM; in experiment [3] (setting [7]) it was more than 250 nM; in experiment [4] (setting [8]) it was more than 250 nM.
Consider `CN1CCN(c2ccc(C#Cc3nccc4cnc(Nc5ccc(S(=O)(=O)Nc6ncccn6)cc5)cc34)cc2)CC1` [Ex 864, 4-((5-((4-(4-methylpiperazin-1-yl)phenyl)ethynyl)-2,6-naphthyridin-3-yl)amino)-N-(pyrimidin-2-yl)benzenesulfonamide], for which the IC50 in experiment [1] (setting [5]) is 25 to 250 nM; in experiment [2] (setting [6]), more than 250 nM; in experiment [3] (setting [7]) it was more than 250 nM; in experiment [4] (setting [8]) it was more than 250 nM.
Turning to `C[C@H]1CN(c2cc(Nc3cc4c(C#Cc5ccc(=O)[nH]n5)nccc4cn3)cnc2O)CCN1C` [Ex 865, (S)-6-((7-((5-(3,4-dimethylpiperazin-1-yl)-6-hydroxypyridin-3-yl)amino)-2,6-naphthyridin-1-yl)ethynyl)pyridazin-3(2H)-one], the IC50 in experiment [1] (setting [5]) is 25 to 250 nM; in experiment [2] (setting [6]) it was more than 250 nM; in experiment [3] (setting [7]), more than 250 nM; in experiment [4] (setting [8]) it was more than 250 nM.
On to `O=c1ccc(C#Cc2nccc3cnc(Nc4cnc(O)c(N5CCN(CCO)CC5)c4)cc23)n[nH]1` [Ex 866, 6-((7-((6-hydroxy-5-(4-(2-hydroxyethyl)piperazin-1-yl)pyridin-3-yl)amino)-2,6-naphthyridin-1-yl)ethynyl)pyridazin-3(2H)-one], for which the IC50 in experiment [1] (setting [5]) is 25 to 250 nM; in experiment [2] (setting [6]), more than 250 nM; in experiment [3] (setting [7]), more than 250 nM; in experiment [4] (setting [8]), more than 250 nM.
For `Cc1c(-c2nccc3cnc(Nc4ccc(S(=O)(=O)Nc5nccn5C)cc4)cc23)ccc2c1cnn2CC(C)(C)O` [Ex 867, 4-((5-(1-(2-hydroxy-2-methylpropyl)-4-methyl-1H-indazol-5-yl)-2,6-naphthyridin-3-yl)amino)-N-(1-methyl-1H-imidazol-2-yl)benzenesulfonamide], the IC50 in experiment [1] (setting [10]) was less than 25 nM; in experiment [2] (setting [6]), more than 250 nM; in experiment [3] (setting [11]) it was 25 to 250 nM; in experiment [4] (setting [12]), 25 to 250 nM.
`Cc1c(-c2nccc3cnc(Nc4ccc(S(=O)(=O)Nc5nc(F)cc(F)n5)cc4)cc23)ccc2c1cnn2CC(C)(C)O` [Ex 868, N-(4,6-difluoropyrimidin-2-yl)-4-((5-(1-(2-hydroxy-2-methylpropyl)-4-methyl-1H-indazol-5-yl)-2,6-naphthyridin-3-yl)amino)benzenesulfonamide]: the IC50 was less than 25 nM in experiment [1] (setting [10]), more than 250 nM in experiment [2] (setting [6]), more than 250 nM in experiment [3] (setting [7]) and more than 250 nM in experiment [4] (setting [8]).
On to `CCOc1ccc(C#Cc2nccc3cnc(Nc4ccc(S(C)(=O)=O)cc4)cc23)cn1` [Ex 869, 5-((6-ethoxypyridin-3-yl)ethynyl)-N-(4-(methylsulfonyl)phenyl)-2,6-naphthyridin-3-amine], for which the IC50 in experiment [1] (setting [5]) is 25 to 250 nM; in experiment [2] (setting [6]), more than 250 nM; in experiment [3] (setting [7]), more than 250 nM; in experiment [4] (setting [8]) it was more than 250 nM.
Turning to `CS(=O)(=O)c1ccc(Nc2cc3c(C#Cc4ccc(C(F)(F)F)nc4)nccc3cn2)cc1` [Ex 870, N-(4-(methylsulfonyl)phenyl)-5-((6-(trifluoromethyl)pyridin-3-yl)ethynyl)-2,6-naphthyridin-3-amine], the IC50 in experiment [1] (setting [9]), in experiment [2] (setting [6]), in experiment [3] (setting [7]) and in experiment [4] (setting [8]) was more than 250 nM throughout.
For the molecule `CS(=O)(=O)c1ccc(Nc2cc3c(C#Cc4c(F)cncc4F)nccc3cn2)cc1` [Ex 871, 5-((3,5-difluoropyridin-4-yl)ethynyl)-N-(4-(methylsulfonyl)phenyl)-2,6-naphthyridin-3-amine], the IC50 in experiment [1] (setting [5]) is 25 to 250 nM; in experiment [2] (setting [6]), more than 250 nM; in experiment [3] (setting [7]) it was more than 250 nM; in experiment [4] (setting [8]), more than 250 nM.
As to `CS(=O)(=O)c1ccc(Nc2cc3c(C#Cc4cc(F)ncc4F)nccc3cn2)cc1` [Ex 872, 5-((2,5-difluoropyridin-4-yl)ethynyl)-N-(4-(methylsulfonyl)phenyl)-2,6-naphthyridin-3-amine], the IC50 is 25 to 250 nM in experiment [1] (setting [5]), more than 250 nM in experiment [2] (setting [6]), more than 250 nM in experiment [3] (setting [7]) and more than 250 nM in experiment [4] (setting [8]).
Regarding `CS(=O)(=O)c1ccc(Nc2cc3c(C#Cc4cncc(F)c4)nccc3cn2)cc1` [Ex 873, 5-((5-fluoropyridin-3-yl)ethynyl)-N-(4-(methylsulfonyl)phenyl)-2,6-naphthyridin-3-amine], the IC50 in experiment [1] (setting [5]) was 25 to 250 nM; in experiment [2] (setting [6]), more than 250 nM; in experiment [3] (setting [7]), more than 250 nM; in experiment [4] (setting [8]), more than 250 nM.
Consider `CS(=O)(=O)c1ccc(Nc2cc3c(C#Cc4ccc(F)nc4)nccc3cn2)cc1` [Ex 874, 5-((6-fluoropyridin-3-yl)ethynyl)-N-(4-(methylsulfonyl)phenyl)-2,6-naphthyridin-3-amine], for which the IC50 was 25 to 250 nM in experiment [1] (setting [5]), more than 250 nM in experiment [2] (setting [6]), more than 250 nM in experiment [3] (setting [7]) and more than 250 nM in experiment [4] (setting [8]).
On to `CS(=O)(=O)c1ccc(Nc2cc3c(C#Cc4cc(F)c(F)c(F)c4)nccc3cn2)cc1` [Ex 875, N-(4-(methylsulfonyl)phenyl)-5-((3,4,5-trifluorophenyl)ethynyl)-2,6-naphthyridin-3-amine], for which the IC50 in experiment [1] (setting [9]), in experiment [2] (setting [6]), in experiment [3] (setting [7]) and in experiment [4] (setting [8]) was more than 250 nM throughout.
In the case of `CN1CCN(c2ccc(C#Cc3nccc4cnc(Nc5ccc(S(N)(=O)=O)cc5)cc34)cc2)CC1` [Ex 876, 4-((5-((4-(4-methylpiperazin-1-yl)phenyl)ethynyl)-2,6-naphthyridin-3-yl)amino)benzenesulfonamide], the IC50 in experiment [1] (setting [10]) is less than 25 nM; in experiment [2] (25-250 nM, read-out: CDK1/CCNB IC50, 25-250 nM) it was 25 to 250 nM; in experiment [3] (setting [11]) it was 25 to 250 nM; in experiment [4] (setting [12]) it was 25 to 250 nM.
On to `CC#Cc1nccc2cnc(Nc3ccc(S(=O)(=O)Nc4nccc(N5CCOCC5)n4)cc3)cc12` [Ex 878, N-(4-morpholinopyrimidin-2-yl)-4-((5-(prop-1-yn-1-yl)-2,6-naphthyridin-3-yl)amino)benzenesulfonamide], for which the IC50 in experiment [1] (setting [5]) was 25 to 250 nM; in experiment [2] (setting [6]), more than 250 nM; in experiment [3] (setting [7]), more than 250 nM; in experiment [4] (setting [8]), more than 250 nM.
For the molecule `CC#Cc1nccc2cnc(Nc3ccc(S(=O)(=O)Nc4nccc(OC)n4)cc3)cc12` [Ex 879, N-(4-methoxypyrimidin-2-yl)-4-((5-(prop-1-yn-1-yl)-2,6-naphthyridin-3-yl)amino)benzenesulfonamide], the IC50 in experiment [1] (setting [5]) was 25 to 250 nM; in experiment [2] (setting [6]) it was more than 250 nM; in experiment [3] (setting [7]), more than 250 nM; in experiment [4] (setting [8]), more than 250 nM.
In the case of `Cc1c(-c2nccc3cnc(Nc4ccc(S(=O)(=O)Nc5ncc(F)cn5)cc4)cc23)ccc2c1cnn2CC(C)(C)O` [Ex 880, N-(5-fluoropyrimidin-2-yl)-4-((5-(1-(2-hydroxy-2-methylpropyl)-4-methyl-1H-indazol-5-yl)-2,6-naphthyridin-3-yl)amino)benzenesulfonamide], the IC50 in experiment [1] (setting [10]) was less than 25 nM; in experiment [2] (setting [6]) it was more than 250 nM; in experiment [3] (setting [7]), more than 250 nM; in experiment [4] (setting [8]), more than 250 nM.

Source of the values: patent publication US20260325533A1, “CDK INHIBITOR COMPOUNDS” (ALEKSIA THERAPEUTICS, INC., priority 2023, published 2026).
